Patent publication US11643439B2, “Multi-target compound with anticoagulation and antiplatelet activity, preparation method therefor, and use thereof” (SHAANXI MICOT TECHNOLOGY LIMITED COMPANY, priority 2015, dated 2023)

Assays:
whole blood coagulation = assay: ACT in rabbits, intravenous maintenance administration; format: in vivo, rabbit
Method: 2. Grouping and administration: 10 rabbits were randomly divided into 3 groups, […]. 1) Sham operation group (NS): Intravenous injection of the same volume of physiological saline, with the same operation method as above; 2) polypeptide 2 administration group: 8.0 mg/kg+20.0 mg/kg/h; 3) positive control enoxaparin group: 50 U/kg+150 U/kg/h. According to the body weight in kilograms of the rabbits, the first dose of the drug to be tested was dissolved in 2 mL of physiological saline for single bolus injection. The maintaining dose was dissolved in 9 ml of physiological saline, and placed in a double-channel micro-injection pump, which was dripped off within 90 minutes at a dripping speed of […]. The sham operation group was administered with the same volume of physiological saline. […]

[1] = test system: experimental cerebral infarction; assay: Progressive ischemic stroke (MCAO suture method) in rats; format: in vivo, rat; conditions: for Cerebral index / Cerebral infarct volume ratio: 24 hours after the surgery
Method: 3.2 Grouping and administration: At 15 min after the mold was established, administration was started by jugular vein intubation, with the first dose and the maintenance dose for 60 min, […], while the model group was administered with physiological saline.
3.3 Experimental operation: Suture method (common carotid artery insertion method): the skin on the neck was cut open from a median incision thereon, and the common, external and internal carotid arteries were isolated therefrom. The common carotid artery was ligated at the heart-proximal end and the external carotid artery was ligated at the distal end. The distal end of the internal carotid artery was temporarily occluded with a small vascular clamp, and at the bifurcation of the common, external and internal carotid arteries, a thread for ligature was reserved. A small opening was cut with an eye scissor on the common carotid artery which was close to the internal carotid artery, to allow a certain degree of bending of the MCAO thread, which inserted into the internal carotid artery along the common carotid artery. During the thread insertion, the thread bended towards the direction of the operator, which was slowly pushed forward about 18 mm (from the bifurcation of the arteries), and terminated when a resistance was felt. The reserved thread was ligated at the bifurcation to fix the thread. At 15 min after the mold was established, the first dose was administered followed by maintenance dose for 60 min, and after the administration was finished, the wound in the neck was sutured in a conventional manner.
4.1 Neurobehavioral scores: Rats in both the groups were evaluated in terms of their neurobehavioral scores at 4, 8, and 24 hours after the surgery, with a Longa five-point quartering method as the standard: 0 point: no neurological defect; 1 point: adduction and failure to full extension of forelimbs on contralateral side when tail lifting; 2 points: rotation to the contralateral side; 3 points: toppling and falling to the contralateral side when walking; 4 points: failure to walk or coma. Cases with 1 to 4 points were classified as valid models.
4.2 observing infarct lesions and infarct volume by TTC staining: At 24 hours after the surgery, the animals were sacrificed and the brain was taken for TTC staining. The infarct volume was calculated by using a mapping software.
4.3 Cerebral index, cerebral water content: The rats in each group were rapidly decapitated 24 hours after the surgery and model establishment, and the whole brain was rapidly peeled off, which was then weighed for wet weight and used to calculate the brain index: Brain index=Brain wet weight/Body weight*100%

platelet aggregation = assay: Platelet aggregation in rabbits, intravenous maintenance administration; format: in vivo, rabbit
Method: 2. Grouping and administration: 10 rabbits were randomly divided into 3 groups, 2 to 3 rabbits per group. 1) Sham operation group (NS): Intravenous injection of the same volume of physiological saline, with the same operation method as above; 2) polypeptide 2 administration group: 8.0 mg/kg+20.0 mg/kg/h; 3) positive control enoxaparin group: 50 U/kg+150 U/kg/h. According to the body weight in kilograms of the rabbits, the first dose of the drug to be tested was dissolved in 2 mL of physiological saline for single bolus injection. The maintaining dose was dissolved in 9 ml of physiological saline, and placed in a double-channel micro-injection pump, which was dripped off within 90 minutes at a dripping speed of […]. The sham operation group was administered with the same volume of physiological saline.
3.1 Surgery preparation of rabbits: Rabbits were sent to the laboratory for accommodation for one day, and then screened at first. Blood samples were taken from arteries within ears, which were subjected to blood routine analysis and APTT assay, and the rabbits with normal blood hemateikon and APTT between 16s to 28s were selected for experiments. The rabbits to be tested were fasted with free access to water for the night before the experiment. The rabbits were anesthetized with intravenous injection of 3% sodium pentobarbital solution at 1 ml/kg, fixed in the supine position, and then, the common carotid artery at one side, external jugular vein, femoral artery at one side, femoral vein, and forelimb vein at one side were isolated. The forelimb vein was subjected to intubation for administration; the left femoral vein was subjected to intubation for blood collection to determine the platelet aggregation rate; the femoral artery was used for the establishment of an arterial thrombosis model; the common carotid artery and external jugular vein were used for the establishment of an arterial and venous bypass thrombosis model.
4.1 Platelet aggregation rate: At points of 0 min before administration; 30 min. 60 min, 90 min for administration; 60 min, 120 min, 180 min after administration was terminated, 2.7 ml blood samples were taken from the femoral vein, rapidly injected into a centrifuge tube containing 0.3 ml of 3.8% sodium citrate solution, and fully mixed well. The resulted blood samples were centrifuged at 810 rpm (100 g) for 8 min to obtain PRP, and was centrifuged at 3500 rpm (1863 g) for 8 min to obtain PPP which was used to determine platelet aggregation.
Blood samples were taken before administration (0 min), 5 min and 15 min after administration, respectively, to determine the platelet aggregation rate which was used to calculate the inhibitory rate of platelet aggregation with a calculation equation as follows: […]

[2] = iv 0.5 + 1.25 (mg/kg + mg/kg/h)

## Enoxaparin
Whole blood coagulation; iv 50 U + 150 U, Administration 30 min
  ACT: 225.0 S
Whole blood coagulation; iv 50 U + 150 U, Administration 60 min
  ACT: 375.0 S
Whole blood coagulation; iv 50 U + 150 U, Administration 90 min
  ACT: 270.0 S
Whole blood coagulation; iv 50 U + 150 U, Before administration
  ACT: 180.0 S
Whole blood coagulation; iv 50 U + 150 U, Termination 60 min
  ACT: 210 S
Whole blood coagulation; iv 50 U + 150 U, Termination 120 min
  ACT: 195.0 S
Whole blood coagulation; iv 50 U + 150 U, Termination 180 min
  ACT: 225.0 S
[1]; iv 90 U/kg + 120 U/kg/h, 4 h after surgery
  neurological behaviors (neurobehavioral score, Longa): 0.63 ± 0.74
[1]; iv 90 U/kg + 120 U/kg/h, 8 h after surgery
  neurological behaviors (neurobehavioral score, Longa): 0.88 ± 0.64
[1]; iv 90 U/kg + 120 U/kg/h, 24 h after surgery
  neurological behaviors (neurobehavioral score, Longa): 1.38 ± 0.74
[1]; iv 90 U/kg + 120 U/kg/h
  Cerebral index: 0.6819 ± 0.0356%
  Cerebral infarct volume ratio: 10.22 ± 5.38 %
Platelet aggregation; iv 50 U + 150 U, 60 min after termination
  inhibitory rate of platelet aggregation: 0.00%
Platelet aggregation; iv 50 U + 150 U, 120 min after termination
  inhibitory rate of platelet aggregation: 41.9%
Platelet aggregation; iv 50 U + 150 U, Administration for 30 min
  inhibitory rate of platelet aggregation: 26.7%
Platelet aggregation; iv 50 U + 150 U, Administration for 60 min
  inhibitory rate of platelet aggregation: 0.00%
Platelet aggregation; iv 50 U + 150 U, Administration for 90 min
  inhibitory rate of platelet aggregation: 35.27%

## D-Phe Pro Arg Pro Gly Gly Gly Gly Asn Gly Asp Phe Glu Glu Ile Pro Glu Glu Tyr Leu Glu Ala Ala Ala Lys Cys Har Gly Asp Trp Pro Cys [Polypeptide 2]
Whole blood coagulation; iv 8.0 + 20.0 (mg/kg+mg/kg/h), Administration 30 min
  ACT: 330.0 ± 63.6 S
Whole blood coagulation; iv 8.0 + 20.0 (mg/kg+mg/kg/h), Administration 60 min
  ACT: 277.5 ± 31.8 S
Whole blood coagulation; iv 8.0 + 20.0 (mg/kg+mg/kg/h), Administration 90 min
  ACT: 300.0 ± 63.6 S
Whole blood coagulation; iv 8.0 + 20.0 (mg/kg+mg/kg/h), Before administration
  ACT: 217.5 ± 95.5 S
Whole blood coagulation; iv 8.0 + 20.0 (mg/kg+mg/kg/h), Termination 120 min
  ACT: 172.5 ± 31.8 S
Whole blood coagulation; iv 8.0 + 20.0 (mg/kg+mg/kg/h), Termination 180 min
  ACT: 112.5 ± 74.2 S
[1]; iv 0.5 + 1.25 (mg/kg + mg/kg/h), 4 h after surgery
  neurological behaviors (neurobehavioral score, Longa): 1.00 ± 0.58
[1]; iv 0.5 + 1.25 (mg/kg + mg/kg/h), 8 h after surgery
  neurological behaviors (neurobehavioral score, Longa): 1.00 ± 0.58
[1]; iv 0.5 + 1.25 (mg/kg + mg/kg/h), 24 h after surgery
  neurological behaviors (neurobehavioral score, Longa): 1.00 ± 0.58
[1]; [2]
  Cerebral index: 0.6648 ± 0.0374 %
  Cerebral infarct volume ratio: 11.12 ± 6.56 %
[1]; iv 0.5 + 1.25 (mg/kg + mg/kg/h), listed as polypeptide 2
  Cerebral infarct volume ratio: 11.12±6.56%
[1]; iv 1.0 + 2.5 (mg/kg + mg/kg/h), 4 h after surgery
  neurological behaviors (neurobehavioral score, Longa): 0.86 ± 1.07
[1]; iv 1.0 + 2.5 (mg/kg + mg/kg/h), 8 h after surgery
  neurological behaviors (neurobehavioral score, Longa): 0.86 ± 0.90
[1]; iv 1.0 + 2.5 (mg/kg + mg/kg/h), 24 h after surgery
  neurological behaviors (neurobehavioral score, Longa): 1.14 ± 0.69
[1]; iv 1.0 + 2.5 (mg/kg + mg/kg/h)
  Cerebral index: 0.6830 ± 0.0322%
  Cerebral infarct volume ratio: 8.01 ± 6.66 %
[1]; iv 1.0 + 2.5 (mg/kg + mg/kg/h), listed as polypeptide 2
  Cerebral infarct volume ratio: 8.01±6.66%
Platelet aggregation; iv 8.0 + 20.0 (mg/kg + mg/kg/h), 60 min after termination
  inhibitory rate of platelet aggregation: 14.1 ± 3.5%
Platelet aggregation; iv 8.0 + 20.0 (mg/kg + mg/kg/h), 120 min after termination
  inhibitory rate of platelet aggregation: 7.5 ± 1.8%
Platelet aggregation; iv 8.0 + 20.0 (mg/kg + mg/kg/h), 180 min after termination
  inhibitory rate of platelet aggregation: 47.5 ± 2.5%
Platelet aggregation; iv 8.0 + 20.0 (mg/kg + mg/kg/h), Administration for 30 min
  inhibitory rate of platelet aggregation: 61.0 ± 14.1%
Platelet aggregation; iv 8.0 + 20.0 (mg/kg + mg/kg/h), Administration for 60 min
  inhibitory rate of platelet aggregation: 72.1 ± 9.6%
Platelet aggregation; iv 8.0 + 20.0 (mg/kg + mg/kg/h), Administration for 90 min
  inhibitory rate of platelet aggregation: 55.8 ± 7.7%
